# Laboratory results published in the supplement of paper PMC10307832.
# Legend:
# Experiment in all cases: relative viability (nuclei count vs DMSO), 5 days (fraction); higher = more cells survive
# Ruxolitinib + Olaparib = compound: N#CC[C@H](C1CCCC1)n1cc(-c2ncnc3[nH]ccc23)cn1 [Ruxolitinib] + O=C(c1cc(Cc2n[nH]c(=O)c3ccccc23)ccc1F)N1CCN(C(=O)C2CC2)CC1 [Olaparib] (partner 8 µM)
# How it was run: (§1)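 Dosing by pin tool came one day after lung cancer cell lines were seeded in 1536-well plates, using either one drug or a fixed anchor-drug dose plus five library-drug doses (not always all listed) in √10 steps. After 5 days, nuclei were counted on 4× images. Relative viability is treated-well nuclei count divided by vehicle-well nuclei count, and values are medians of duplicate plates.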
# Ruxolitinib + Phenformin = compound: N#CC[C@H](C1CCCC1)n1cc(-c2ncnc3[nH]ccc23)cn1 [Ruxolitinib] + N=C(N)NC(=N)NCCc1ccccc1 [Phenformin] (partner 250 µM)
# How it was run: as §1
# VE-821 + Trametinib = compound: CS(=O)(=O)c1ccc(-c2cnc(N)c(C(=O)Nc3ccccc3)n2)cc1 [VE-821] + CC(=O)Nc1cccc(-n2c(=O)n(C3CC3)c(=O)c3c(Nc4ccc(I)cc4F)n(C)c(=O)c(C)c32)c1 [Trametinib] (partner 0.02 µM)
# How it was run: as §1
# Ruxolitinib + Navitoclax = compound: N#CC[C@H](C1CCCC1)n1cc(-c2ncnc3[nH]ccc23)cn1 [Ruxolitinib] + CC1(C)CCC(c2ccc(Cl)cc2)=C(CN2CCN(c3ccc(C(=O)NS(=O)(=O)c4ccc(N[C@H](CCN5CCOCC5)CSc5ccccc5)c(S(=O)(=O)C(F)(F)F)c4)cc3)CC2)C1 [Navitoclax] (partner 0.5 µM)
# How it was run: as §1
Cell Line,relative viability (Ruxolitinib + Olaparib; first compound 0.08 µM),relative viability (Ruxolitinib + Olaparib; first compound 0.253 µM),relative viability (Ruxolitinib + Olaparib; first compound 0.8 µM),relative viability (Ruxolitinib + Olaparib; first compound 2.53 µM),relative viability (Ruxolitinib + Olaparib; first compound 8 µM),relative viability (Ruxolitinib + Phenformin; first compound 0.08 µM),relative viability (Ruxolitinib + Phenformin; first compound 0.253 µM),relative viability (Ruxolitinib + Phenformin; first compound 0.8 µM),relative viability (Ruxolitinib + Phenformin; first compound 2.53 µM),relative viability (Ruxolitinib + Phenformin; first compound 8 µM),relative viability (VE-821 + Trametinib; first compound 0.08 µM),relative viability (VE-821 + Trametinib; first compound 0.253 µM),relative viability (VE-821 + Trametinib; first compound 0.8 µM),relative viability (VE-821 + Trametinib; first compound 2.53 µM),relative viability (VE-821 + Trametinib; first compound 8 µM),relative viability (Ruxolitinib + Navitoclax; first compound 0.08 µM),relative viability (Ruxolitinib + Navitoclax; first compound 0.253 µM),relative viability (Ruxolitinib + Navitoclax; first compound 0.8 µM),relative viability (Ruxolitinib + Navitoclax; first compound 2.53 µM),relative viability (Ruxolitinib + Navitoclax; first compound 8 µM)
LXF-289,0.994,1.1,1.13,1.03,0.924,0.509,0.492,0.538,0.491,0.497,0.708,0.641,0.773,0.745,0.741,0.914,0.956,0.891,0.92,0.778
NCI-H23,0.371,0.369,0.311,0.242,0.17,0.892,0.807,0.804,0.67,0.727,0.459,0.457,0.34,0.278,0.272,0.716,1.12,0.978,0.801,0.929
NCI-H322M,0.752,0.852,0.79,0.809,1.05,0.777,0.768,0.936,0.962,1.02,0.604,0.565,0.572,0.493,0.472,1.36,1.26,1.27,1.53,1.44
NCI-H441,0.508,0.54,0.502,0.472,0.484,0.769,0.743,1.13,0.688,0.651,0.547,0.516,0.371,0.57,0.38,0.817,0.501,0.659,0.45,0.623
NCI-H460,,0.463,0.411,0.344,0.375,0.484,0.54,0.549,0.443,0.445,0.185,0.0922,0.121,0.11,0.0592,1.17,1.34,1.34,1.13,0.656
NCI-H520,0.298,0.375,0.366,0.343,0.284,0.565,0.323,0.717,0.483,0.58,0.752,0.744,0.654,0.752,0.44,,1.01,1.38,1.22,0.782
NCI-H596,0.761,0.71,0.844,0.696,0.751,0.975,0.793,0.801,0.706,0.836,0.78,0.802,0.752,0.798,0.594,0.903,1.05,1,1.01,1.14
NCI-H647,0.578,0.687,0.596,0.475,0.31,0.481,0.517,0.502,0.481,0.531,0.62,0.419,0.352,0.389,0.234,,0.995,1.27,0.855,0.989
NCI-H727,0.715,0.8,0.603,0.826,0.645,0.505,0.55,0.576,0.599,0.848,0.398,0.432,0.416,0.422,0.396,0.472,0.426,0.627,0.595,0.366
NCI-H838,0.801,0.718,0.62,0.4,0.202,0.602,0.54,0.465,0.266,0.263,0.568,0.472,0.544,0.648,0.345,1.08,1.06,1.04,0.641,0.406
NCI-H1355,0.745,0.749,0.798,0.655,0.616,0.418,0.418,0.46,0.394,0.416,0.53,0.424,0.349,0.429,0.381,0.924,0.925,0.992,0.807,0.701
NCI-H1395,0.44,0.419,0.456,0.443,0.476,0.435,0.418,0.489,0.455,0.408,1.11,0.988,0.913,1.02,0.763,,0.993,1.17,1.13,0.944
NCI-H1437,0.669,0.622,0.624,0.549,0.463,0.341,0.287,0.29,0.275,0.271,0.533,0.445,0.498,0.566,0.376,1.12,1.14,1.14,1.05,0.884
NCI-H1650,0.689,0.784,0.879,0.836,0.751,,0.315,0.455,0.388,0.331,0.869,0.453,0.668,0.586,0.402,,1.05,1.23,0.96,0.971
NCI-H1651,0.192,0.179,0.189,0.198,0.211,0.313,0.275,0.351,0.3,0.354,0.876,0.799,0.733,0.808,0.821,0.978,1.08,1.11,1.36,0.996
NCI-H1666,0.74,0.759,0.797,0.786,0.698,0.606,0.538,0.519,0.564,0.512,0.833,0.809,0.867,0.718,0.85,0.876,1.01,1.1,0.759,1.07

Cell Line,relative viability (Ruxolitinib + Olaparib; first compound 0.08 µM),relative viability (Ruxolitinib + Olaparib; first compound 0.253 µM),relative viability (Ruxolitinib + Olaparib; first compound 0.8 µM),relative viability (Ruxolitinib + Olaparib; first compound 2.53 µM),relative viability (Ruxolitinib + Olaparib; first compound 8 µM),relative viability (Ruxolitinib + Phenformin; first compound 0.08 µM),relative viability (Ruxolitinib + Phenformin; first compound 0.253 µM),relative viability (Ruxolitinib + Phenformin; first compound 0.8 µM),relative viability (Ruxolitinib + Phenformin; first compound 2.53 µM),relative viability (Ruxolitinib + Phenformin; first compound 8 µM),relative viability (VE-821 + Trametinib; first compound 0.08 µM),relative viability (VE-821 + Trametinib; first compound 0.253 µM),relative viability (VE-821 + Trametinib; first compound 0.8 µM),relative viability (VE-821 + Trametinib; first compound 2.53 µM),relative viability (VE-821 + Trametinib; first compound 8 µM),relative viability (Ruxolitinib + Navitoclax; first compound 0.08 µM),relative viability (Ruxolitinib + Navitoclax; first compound 0.253 µM),relative viability (Ruxolitinib + Navitoclax; first compound 0.8 µM),relative viability (Ruxolitinib + Navitoclax; first compound 2.53 µM),relative viability (Ruxolitinib + Navitoclax; first compound 8 µM)
NCI-H1734,0.605,0.554,0.64,0.56,0.583,0.382,0.342,0.472,0.36,0.432,0.718,0.732,0.651,0.723,0.587,0.749,0.698,0.899,0.724,0.785
NCI-H1755,0.897,0.812,0.925,0.772,0.792,0.613,0.586,0.575,0.527,0.526,0.86,0.737,0.781,0.711,0.741,0.919,0.925,1,0.844,0.732
NCI-H1792,0.303,0.44,0.377,0.384,0.236,0.253,0.241,0.261,0.146,0.128,0.505,0.464,0.361,0.65,0.492,0.658,0.644,0.595,0.473,0.519
NCI-H1793,0.769,0.8,1.07,0.89,0.706,0.361,0.345,0.368,0.338,0.304,0.605,0.408,,0.526,0.618,0.494,0.374,0.486,0.621,0.266
NCI-H1915,0.249,0.255,0.265,0.208,0.236,0.375,0.41,0.384,0.358,0.343,0.331,0.288,0.281,0.349,0.303,0.79,0.838,0.791,0.731,0.691
NCI-H1944,0.431,0.426,0.428,0.399,0.448,0.201,0.202,0.215,0.164,0.151,0.401,0.445,0.432,0.399,0.364,0.998,0.959,1.03,0.887,0.955
NCI-H1975,0.854,0.786,0.716,0.675,0.421,0.43,0.394,0.423,0.384,0.269,0.359,0.37,0.199,0.352,0.227,1.13,1.04,1.15,0.698,0.591
NCI-H1993,0.879,0.953,1.42,1.47,1.02,0.497,0.526,0.473,0.572,0.51,0.534,0.604,0.61,0.505,0.502,0.858,0.869,0.998,1.02,0.932
NCI-H2009,0.701,0.712,0.684,0.575,0.482,0.414,0.443,0.535,0.423,0.297,0.266,0.287,0.254,0.263,0.174,1.2,1.2,1.16,0.961,0.897
NCI-H2023,0.483,0.604,0.509,0.515,0.339,0.383,0.373,0.428,0.358,0.328,0.575,0.488,0.349,0.252,0.181,1,0.94,1.08,0.939,0.855
NCI-H2085,0.781,0.804,0.755,0.64,0.588,0.758,0.774,0.831,0.627,0.642,0.507,0.463,0.269,,0.364,1.12,1.07,1.2,1.11,0.999
NCI-H2087,0.433,,0.454,0.631,0.579,0.531,0.388,0.523,0.409,0.382,0.218,0.275,0.177,0.222,0.234,0.922,0.874,0.846,0.801,0.795
NCI-H2126,0.923,0.933,0.958,0.879,0.811,0.518,0.474,0.568,0.528,0.522,0.54,0.54,0.549,0.495,0.533,0.82,0.725,0.781,0.8,0.689
NCI-H2170,0.584,0.686,0.592,0.579,0.5,0.382,0.391,0.417,0.374,0.351,0.977,0.865,0.947,0.819,0.629,0.6,0.575,0.618,0.593,0.48
NCI-H2228,0.58,0.847,0.576,0.614,0.592,0.323,0.299,0.311,0.264,0.273,0.51,0.645,0.354,0.644,0.382,0.925,0.987,1.02,0.921,0.712
NCI-H2347,0.527,0.627,0.644,0.599,0.572,0.385,0.406,0.453,0.533,0.505,0.298,0.276,0.289,0.292,0.324,0.783,0.72,0.99,0.741,0.758
